Experimental data from patent publication US7115690B2, “Fluorine-containing polymer, resist composition prepared from same and novel fluorine-containing monomer” (Daikin Industries, Ltd., priority 2001, dated 2006).
Several values for one entry are separate records, joined by “and”; a condition that tells them apart may be missing. Identical values can stand only once.

What was measured:
[1] = Measurement of pKa value by NaOH titration in water/acetone; settings: for pKa: water/acetone mixture (10/15 ml)
Procedure: (§1) In a water/acetone mixture (10/15 ml) solution was put 0.4045 g of the above-mentioned cyclopentene derivative, followed by stirring at room temperature. After it was confirmed that the solution became homogeneous, titration was carried out with about 0.2 mol/liter NaOH solution. A titration curve was obtained by adding a NaOH solution dropwise in increments of 0.15 ml and recording a pH value at every addition. An equivalence point was determined by an inflection point (maximum differential value of titration curve=dpH/dml) of the titration curve. […] From a titration curve of water/acetone solution and aqueous solution which had been measured previously as a blank solution, a difference in a pH value derived from an electric potential difference between the solutions at titration of 4.0 ml was 1.50.

physchem = settings: (2) pKa
Procedure: as §1

[2] = titration with about 0.2 mol/liter NaOH in water/acetone, corrected with blank
[3] = (2) pKa, titration with about 0.2 mol/liter NaOH in water/acetone, corrected with blank

| Compound | (2) pKa [1, 2] | pKa [1, 3] | further results |
| --- | --- | --- | --- |
| OC(C(F)(F)F)(C(F)(F)F)C1(F)CC2C=CC1C2 (centres unmarked) |  | 9 |  |
| OC(C(F)(F)F)(C(F)(F)F)C1(F)C2C=CC(C2)C1(F)F (centres unmarked) |  |  | pKa (physchem): 8.3 |
| OC(C1CC2C=CC1C2)(C(F)(F)F)C(F)(F)F (centres unmarked) |  | 10.2 |  |
| OC1(C(F)(F)F)C2C=CC(C2)C1(F)F (centres unmarked) |  | 11.5 |  |

Continued, in another order:

| (2) pKa [1, 2] | pKa [1, 3] | Compound | further results |
| --- | --- | --- | --- |
| 9.6 |  | CH2═CHCH2C(CF3)2OH [reference compound] |  |
|  | 9.8 | OC(C1C=CCC1)(C(F)(F)F)C(F)(F)F (centres unmarked) [Example 12, cyclopentene having —C(CF3)2OH group] | pKa value (single titration) ([1]; individual titrations of 0.4045 g, 0.8104 g and 0.9812 g in water/acetone (10/15 ml), listed as cyclopentene derivative having —C(CF3)2OH group): 9.95 and 9.86; pKa ([1]; pKa value (single titration), individual titrations of 0.4045 g, 0.8104 g and 0.9812 g in water/acetone (10/15 ml)): 9.62 |
| 9.3 |  | OC(C(F)(F)F)C(F)(F)F [CF3CH(CF3)—OH, reference compound] |  |
| 7.1 |  | CF2═CF—C(CF3)2OH [reference compound] |  |
| 8.0 |  | CH2═CF—C(CF3)2OH [reference compound] |  |
